Reference: patent US3985761A, “Nitrothiazolyl derivatives of nitrostyrene” (priority 1974, dated 1976)
≈ marks a conversion by molar mass, not a printed value. Read-outs that look alike come from different tables or passages of the source.

Assays:
Staph. aureus = experiment: Antimicrobial serial dilution (MIC), S.a; format: cell-based; conditions: Staphylococcus aureus
[1] = system: antibiotic resistant Staph aureus; experiment: Antimicrobial serial dilution (MIC), A/R S.a; format: cell-based; conditions: Staphylococcus aureus, read-out: MIC A/R S.a
E.coli = experiment: Antimicrobial serial dilution (MIC), E.c.; format: cell-based; conditions: Escherichia coli
S.Shigae = experiment: microbe, parasite or virus in culture; format: cell-based; conditions: Shigella dysenteriae, read-out: MIC S.s
S. typhi = experiment: Antimicrobial serial dilution (MIC), S.t; format: cell-based; conditions: Salmonella enterica
Proteus vulgaris ox 19 = experiment: Antimicrobial serial dilution (MIC), Pr.ox; format: cell-based; conditions: OX19
Ps. aeruginosa = experiment: Antimicrobial serial dilution (MIC), P.a; format: cell-based; conditions: Pseudomonas aeruginosa
Hymenolepsis nana = experiment: Activity against tapeworms Hymenolepsis nana in mice; format: in vivo, Hymenolepsis nana (infected Albimo mice); conditions: Mus musculus, po, 72 h, read-out: Activity: % of infected mice getting 100% clearance
Protocol: The anthelmintic properties of the products of the invention have been determined as follows:
Albimo mice of either sex (18-20 g.weight range) were administered by gavage 0.2 ml of the standard inoculum (containing 1000 viable eggs). 20 days later, the faecal matter was checked for Hymenolipis nana eggs. Mice showing the presence of H nana eggs were taken for experiments. They were classified on the weight basis. 5 animals were taken in each cage.
Compounds of the invention under investigation were suspended in 0.2% tragacanth. Concentrations were adjusted in such a way that 0.2 ml conformed to particular dosage schedule for each compound. They were administered by gavage in fasting condition in the morning on 21st day post infection, once daily for 3 consecutive days. For each set of test compound group, one cage of infected control mice was kept. These received saline for 3 days.
After 3 consecutive days of administration, all mice were kept fasting on the subsequent day (24th day post infection) and sacrificed on the 25th day. Results of surviving mice only have been taken. From each mouse, the whole intestine including caecum was collected in a petri dish with water. It was cut open longitudinally and was examined for adult worms and scolices. Absolute clearance of worms and scolices in individual mouse was taken as a criterion for assessing the results of each group.
The data on some of the compounds studied are represented in Table II

Candida albicans = experiment: Antimicrobial serial dilution (MIC), C.a; format: cell-based
[2] = system: Trichophyton mentagrophytes; experiment: Antimicrobial serial dilution (MIC), T.m; format: cell-based
microsporum gypseum = experiment: Antimicrobial serial dilution (MIC), M.gy; format: cell-based; conditions: Nannizzia gypsea
Phialophora jeanselmei = experiment: Antimicrobial serial dilution (MIC), Ph.je; format: cell-based; conditions: Exophiala jeanselmei
Nocardia asteroides = experiment: Antimicrobial serial dilution (MIC), N.a; format: cell-based
Aspergillus fumigatus = experiment: Antimicrobial serial dilution (MIC), A.f; format: cell-based
plant pathogenic fungi = conditions: C.A. Vol. 62, 14569e; cited from earlier work
[3] = 400 mg/kg/day × 3 days, gavage, surviving mice only

SMILES | MIC (Staph. aureus) [µg/mL] | MIC [1] [µg/mL] | MIC (E.coli) [µg/mL] | MIC (S.Shigae) [µg/mL] | MIC (S. typhi) [µg/mL] | MIC (Proteus vulgaris ox 19) [µg/mL] | MIC (Ps. aeruginosa) [µg/mL] | MIC (Candida albicans) [µg/mL] | MIC [2] [µg/mL] | MIC (microsporum gypseum) [µg/mL] | MIC (Phialophora jeanselmei) [µg/mL] | MIC (Nocardia asteroides) [µg/mL] | MIC (Aspergillus fumigatus) [µg/mL] | also measured
CC(=Cc1ccc(OC(=O)Nc2ccc(Br)cc2)cc1)[N+](=O)[O-] [drawing 4] | 6.25 (≈ 16.6 µM) | 12.5 (≈ 33.1 µM) | 6.25 (≈ 16.6 µM) | 6.25 to 12.5 (≈ 16.6 to 33.1 µM) | ≥ 50 | 6.25 (≈ 16.6 µM) | ≥ 50 |  |  |  |  |  |  | 
CC(=Cc1ccc(OC(=O)Nc2ccccc2)cc1)[N+](=O)[O-] [drawing 7] | 6.25 (≈ 21 µM) | 3.12 to 6.25 (≈ 10.5 to 21 µM) | 6.25 (≈ 21 µM) | 6.25 (≈ 21 µM) | 50 (≈ 168 µM) | 12.5 (≈ 41.9 µM) | ≥ 50 |  |  |  |  |  |  | 
CC(=Cc1ccc(Oc2ncc([N+](=O)[O-])s2)cc1)[N+](=O)[O-] [drawing 9] | 1.56 (≈ 5.08 µM) | 1.56 (≈ 5.08 µM) | 3.12 (≈ 10.2 µM) | 3.12 (≈ 10.2 µM) | 50 (≈ 163 µM) | 1.56 to 3.12 (≈ 5.08 to 10.2 µM) | ≥ 50 |  |  |  |  |  |  | 
CC(=Cc1ccc(O)c(Cl)c1)[N+](=O)[O-] [drawing 10] | 3.12 (≈ 14.6 µM) | 3.12 (≈ 14.6 µM) | 12.5 to 25 (≈ 58.5 to 117 µM) | 25 (≈ 117 µM) | 50 (≈ 234 µM) | 6.25 (≈ 29.3 µM) | ≥ 50 |  |  |  |  |  |  | 
CC(=Cc1ccc(OC(=O)Nc2ccc(Br)cc2)c(Cl)c1)[N+](=O)[O-] [drawing 12] | 6.25 (≈ 15.2 µM) | 6.25 (≈ 15.2 µM) | 50 (≈ 121 µM) | 25 (≈ 60.7 µM) | > 50 | 6.25 (≈ 15.2 µM) | ≥ 50 |  |  |  |  |  |  | 
CC(=Cc1cccc(OC(=O)Nc2ccc(C)cc2)c1)[N+](=O)[O-] |  |  |  |  |  |  |  |  |  |  |  |  |  | responders at 200 mg/kg (Hymenolepsis nana; 200 mg/kg/day × 3 days, gavage, surviving mice only): 100%
CC(=Cc1ccc(OC(=O)Nc2ccccc2)c(Cl)c1)[N+](=O)[O-] |  |  |  |  |  |  |  |  |  |  |  |  |  | responders at 400 mg/kg (Hymenolepsis nana; [3]): 100%
CCCCNC(=O)Oc1ccc(C=C(C)[N+](=O)[O-])cc1 [drawing 5] | 6.25 (≈ 22.5 µM) | 6.25 (≈ 22.5 µM) | 6.25 to 12.5 (≈ 22.5 to 44.9 µM) | 12.5 (≈ 44.9 µM) | 50 (≈ 180 µM) | 6.25 (≈ 22.5 µM) | ≥ 50 |  |  |  |  |  |  | 
O=[N+]([O-])C=Cc1cc(Cl)ccc1O [drawing 11] | 3.12 (≈ 15.7 µM) | 3.12 (≈ 15.7 µM) | 50 (≈ 251 µM) | 50 (≈ 251 µM) | 50 (≈ 251 µM) | 25 (≈ 125 µM) | ≥ 50 |  |  |  |  |  |  | 
CC(=Cc1ccc(OC(=O)Nc2ccccc2)cc1)[N+](=O)[O-] [drawing 17] |  |  |  |  |  |  |  | 25 (≈ 83.8 µM) | 3.12 to 6.25 (≈ 10.5 to 21 µM) | 3.12 (≈ 10.5 µM) | 3.12 (≈ 10.5 µM) | 25 (≈ 83.8 µM) | 6.25 (≈ 21 µM) | 
CCCCNC(=O)Oc1ccc(C=C(C)[N+](=O)[O-])cc1Cl |  |  |  |  |  |  |  |  |  |  |  |  |  | responders at 400 mg/kg (Hymenolepsis nana; [3]): 100%
CC(=Cc1ccc(OC(=O)Nc2ccc(C)cc2)cc1)[N+](=O)[O-] [drawing 3] | 6.25 (≈ 20 µM) | 6.25 (≈ 20 µM) | 6.25 (≈ 20 µM) | 12.5 (≈ 40 µM) | 50 (≈ 160 µM) | 6.25 (≈ 20 µM) | ≥ 50 |  |  |  |  |  |  | 
CC(=Cc1ccc(OC(=O)Nc2ccc(Br)cc2)cc1)[N+](=O)[O-] [drawing 14] |  |  |  |  |  |  |  | 22.5 to 25 (≈ 59.7 to 66.3 µM) | 1.56 (≈ 4.14 µM) | 1.56 (≈ 4.14 µM) | 1.56 (≈ 4.14 µM) | 50 (≈ 133 µM) | 12.5 (≈ 33.1 µM) | 
Cc1ccc(NC(=O)Oc2ccc(C=C[N+](=O)[O-])cc2)cc1 |  |  |  |  |  |  |  |  |  |  |  |  |  | responders at 400 mg/kg (Hymenolepsis nana): 94%
CC(=Cc1ccc(OC(=O)Nc2ccccc2)cc1)[N+](=O)[O-] [drawing 25] |  |  |  |  |  |  |  |  |  |  |  |  |  | responders at 400 mg/kg (Hymenolepsis nana; [3]): 100%
CC(=Cc1cccc(O)c1)[N+](=O)[O-] [drawing 8] | 3.12 (≈ 17.4 µM) | 3.12 (≈ 17.4 µM) | 3.12 (≈ 17.4 µM) | 3.12 (≈ 17.4 µM) | 50 (≈ 279 µM) | 3.12 (≈ 17.4 µM) | 50 (≈ 279 µM) |  |  |  |  |  |  | 
O=[N+]([O-])C=Cc1cc(Cl)ccc1O [drawing 21] |  |  |  |  |  |  |  | 25.5 (≈ 128 µM) | 6.25 (≈ 31.3 µM) | 6.25 to 12.5 (≈ 31.3 to 62.6 µM) | 12.5 (≈ 62.6 µM) | 25 (≈ 125 µM) | 12.5 (≈ 62.6 µM) | 
O=C(Nc1ccc(Br)cc1)Oc1cccc(C=C[N+](=O)[O-])c1 |  |  |  |  |  |  |  |  |  |  |  |  |  | responders at 400 mg/kg (Hymenolepsis nana): 100%
CC(=Cc1ccc(OC(=O)NC2CCCCC2)cc1)[N+](=O)[O-] [drawing 6] | 3.12 (≈ 10.3 µM) | 3.12 (≈ 10.3 µM) | 6.12 to 12.5 (≈ 20.1 to 41.1 µM) | 12.5 (≈ 41.1 µM) | 50 (≈ 164 µM) | 6.25 to 12.5 (≈ 20.5 to 41.1 µM) | ≥ 50 |  |  |  |  |  |  | 
CC(=Cc1cccc(OC(=O)Nc2ccccc2)c1)[N+](=O)[O-] |  |  |  |  |  |  |  |  |  |  |  |  |  | responders at 400 mg/kg (Hymenolepsis nana; [3]): 100%
CC(=Cc1ccc(OC(=O)Nc2ccc(C)cc2)cc1)[N+](=O)[O-] [drawing 13] |  |  |  |  |  |  |  | 12.5 (≈ 40 µM) | 3.12 (≈ 10 µM) | 1.56 to 3.12 (≈ 4.99 to 10 µM) | 6.25 (≈ 20 µM) | 25.5 (≈ 81.6 µM) | 12.5 (≈ 40 µM) | 
CC(=Cc1cccc(O)c1)[N+](=O)[O-] [drawing 18] |  |  |  |  |  |  |  | 12.5 (≈ 69.8 µM) | 1.56 (≈ 8.71 µM) | 1.56 (≈ 8.71 µM) | 3.12 (≈ 17.4 µM) | 25 (≈ 140 µM) | 6.25 (≈ 34.9 µM) | 
O=C(Nc1ccccc1)Oc1ccc(C=C[N+](=O)[O-])cc1 |  |  |  |  |  |  |  |  |  |  |  |  |  | responders at 350 mg/kg (Hymenolepsis nana): 90%
CC(=Cc1ccc(O)c(Cl)c1)[N+](=O)[O-] [drawing 20] |  |  |  |  |  |  |  | 12.5 (≈ 58.5 µM) | 1.56 (≈ 7.3 µM) | 1.56 (≈ 7.3 µM) | 3.12 (≈ 14.6 µM) | 50 (≈ 234 µM) | 6.25 (≈ 29.3 µM) | 
O=[N+]([O-])C=Cc1ccc(O)c([N+](=O)[O-])c1 [3-nitro-4-hydroxy-β-nitrostyrene] |  |  |  |  |  |  |  |  |  |  |  |  |  | antifungal properties against plant pathogenic fungi (plant pathogenic fungi): antifungal properties against plant pathogenic fungi
CC(=Cc1ccc(OC(=O)Nc2ccc(Br)cc2)c(Cl)c1)[N+](=O)[O-] [drawing 22] |  |  |  |  |  |  |  | 25 (≈ 60.7 µM) | 1.56 (≈ 3.79 µM) | 1.56 (≈ 3.79 µM) | 3.12 (≈ 7.59 µM) | 50 (≈ 121 µM) | 6.25 (≈ 15.2 µM) | 
CC(=Cc1ccc(Oc2ncc([N+](=O)[O-])s2)cc1)[N+](=O)[O-] [drawing 19] |  |  |  |  |  |  |  | 3.12 (≈ 10.2 µM) | 0.19 (≈ 0.618 µM) | 0.39 to 0.78 (≈ 1.27 to 2.54 µM) | 0.39 (≈ 1.27 µM) | 12.5 (≈ 40.7 µM) | 1.56 (≈ 5.08 µM) | 
CCCCNC(=O)Oc1ccc(C=C(C)[N+](=O)[O-])cc1 [drawing 15] |  |  |  |  |  |  |  | 12.5 to 25 (≈ 44.9 to 89.8 µM) | 0.78 (≈ 2.8 µM) | 0.39 to 0.78 (≈ 1.4 to 2.8 µM) | 0.78 (≈ 2.8 µM) | 50 (≈ 180 µM) | 6.25 (≈ 22.5 µM) | 
CC(=Cc1ccc(OC(=O)NC2CCCCC2)cc1)[N+](=O)[O-] [drawing 16] |  |  |  |  |  |  |  | 25 (≈ 82.1 µM) | 0.78 (≈ 2.56 µM) | 6.25 (≈ 20.5 µM) | 6.25 (≈ 20.5 µM) | 50 (≈ 164 µM) | 6.25 to 12.5 (≈ 20.5 to 41.1 µM) | 
CC(=Cc1ccc(OC(=O)Nc2ccc(C)cc2)c(Cl)c1)[N+](=O)[O-] |  |  |  |  |  |  |  |  |  |  |  |  |  | responders at 400 mg/kg (Hymenolepsis nana; [3]): 100%
